Data on eleven molecules can be found in ChEMBL document CHEMBL1201862, “PubChem BioAssay data set” (2004).

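Values below derive from 48-hour exposures of cells grown in 96-well plates, with endpoints linearly interpolated between the two concentrations bracketing the appropriate inhibition level. At the GI50, growth is halved.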 Calls of active or inactive are those of the source. Cut-off read from the data, not from the text of the source: active = GI50 up to about 1.1 µM and inactive = higher.

Some test systems named below: HOP-92; MDA-N; TK-10; OVCAR-3; HT-29; IGROV-1; SW-620; UACC-62; HCT-15; HOP-62; MDA-MB-435; DU-145; UO-31; SK-MEL-2; KM12; NCI/ADR-RES; NCI-H522; SK-MEL-5; MOLT-4; DMS-273.
Experiment in all cases: inhibition of tumour cell growth, NCI panel, 48 h

As to `COC1(CC[C@@H](C)COC2OC(CO)C(O)C(O)C2O)O[C@H]2C[C@H]3[C@@H]4CC=C5C[C@@H](OC6OC(CO)C(O)C(OC7OC(CO)C(O)C(O)C7O)C6OC6OC(C)C(O)C(O)C6O)CC[C@]5(C)[C@H]4CC[C@]3(C)[C@H]2[C@@H]1C` (some centres not stated), the GI50 with HOP-92 was 2.46 µM (inactive); in the assay on MDA-N, 8.63 µM (inactive); with TK-10 it was 19.3 µM (inactive); with OVCAR-3, 16.8 µM (inactive); in the assay with HT-29, 4.67 µM (inactive); in the assay on IGROV-1, 7.24 µM (inactive). The GI50 with SW-620 was 2.6 µM (inactive); in the assay with UACC-62 it was 3.19 µM (inactive); in the assay with HCT-15 it was 3.28 µM; with HOP-62, 10.4 µM (inactive); with MDA-MB-435, 2.77 µM (inactive); in the assay with DU-145 it was 3.97 µM (inactive). For the same molecule, the GI50 in the assay with UO-31 is 4.5 µM (inactive); in the assay with SK-MEL-2, 13.7 µM (inactive); in the assay on KM12, 2.08 µM (inactive); in the assay with NCI/ADR-RES it was 16 µM (inactive); with NCI-H522 it was 4.62 µM (inactive); with SK-MEL-5 it was 9.84 µM (inactive). Also, in the assay with MOLT-4, the GI50 is 16 µM (inactive).

Consider `CCCCCCCCCCCCCCCCCCOc1ccc(/C=C/C2=[N+](CCCl)CCO2)cc1`, for which the GI50 in the assay with HOP-92 was > 100 µM (inactive); in the assay on MDA-N it was > 100 µM (inactive); with TK-10 it was > 100 µM (inactive); with OVCAR-3, > 100 µM (inactive); with HT-29 it was > 100 µM (inactive); with IGROV-1, 67.6 µM (inactive). In addition, the GI50 in the assay with SW-620 is > 100 µM (inactive); in the assay with UACC-62, > 100 µM (inactive); with HCT-15 it was more than 100 µM; with HOP-62 it was > 100 µM (inactive); with MDA-MB-435, > 100 µM (inactive); in the assay on DU-145 it was > 100 µM (inactive). Moreover, the GI50 in the assay on UO-31 was > 100 µM (inactive); in the assay on SK-MEL-2, > 100 µM (inactive); in the assay on KM12, > 100 µM (inactive); in the assay with NCI/ADR-RES, > 100 µM (inactive); with NCI-H522, 0.796 µM (active); with SK-MEL-5 it was > 100 µM (inactive). For the same molecule, the GI50 in the assay with MOLT-4 is > 100 µM (inactive).

As for `N#C/N=C1\NCCC(=O)N1CCc1c[nH]c2ccccc12`, the GI50 in the assay with TK-10, in the assay on OVCAR-3, in the assay with HT-29, in the assay with IGROV-1, in the assay on SW-620 and in the assay with UACC-62 was > 100 µM (inactive) in each case. For the same molecule, the GI50 was more than 100 µM in the assay with HCT-15; > 100 µM (inactive) in the assay with HOP-62; > 100 µM (inactive) in the assay with UO-31; > 100 µM (inactive) in the assay on KM12; > 100 µM (inactive) with DMS-273; > 100 µM (inactive) in the assay on SK-MEL-5. In the assay on MOLT-4, the GI50 was > 100 µM (inactive).

As for `C[C@@H](CO)C1=CC(C#C[Si](C)(C)C)N(C(=O)Oc2ccccc2)c2ccccc21` (some centres not stated), the GI50 in the assay on HOP-92 was 11.7 µM (inactive); in the assay on MDA-N, 7.08 µM (inactive); in the assay on TK-10, 31.1 µM (inactive); with OVCAR-3 it was 13.2 µM (inactive); in the assay with HT-29, 16 µM (inactive); with IGROV-1 it was 17.1 µM (inactive). The GI50 is 24 µM (inactive) with SW-620; 9.1 µM (inactive) in the assay on UACC-62; 6.37 µM with HCT-15; 15 µM (inactive) in the assay on HOP-62; 3.45 µM (inactive) in the assay with MDA-MB-435; 21.6 µM (inactive) in the assay on DU-145. Besides, the GI50 in the assay with UO-31 is 14.7 µM (inactive); with SK-MEL-2, 16.9 µM (inactive); in the assay on KM12 it was 14.2 µM (inactive); in the assay on NCI/ADR-RES, 11.8 µM (inactive); with NCI-H522, 16.8 µM (inactive); in the assay on SK-MEL-5, 16 µM (inactive). The GI50 in the assay with MOLT-4 is 3.29 µM (inactive).

Regarding `O=c1c2c(no[n+]2[O-])c2ccccc2n1-c1ccccc1`, the GI50 in the assay with HOP-92 is 8.47 µM (inactive); in the assay with MDA-N it was 3.4 µM (inactive); with TK-10, 17.3 µM (inactive); with OVCAR-3 it was 12.8 µM (inactive); in the assay with HT-29 it was 4.89 µM (inactive); with IGROV-1, 3.75 µM (inactive). Also, the GI50 in the assay on SW-620 was 2.65 µM (inactive); in the assay on UACC-62, 4.05 µM (inactive); in the assay on HCT-15 it was 2.94 µM; in the assay on HOP-62, 15.1 µM (inactive); in the assay on MDA-MB-435, 5.43 µM (inactive); in the assay on DU-145, 20.4 µM (inactive). The GI50 is 11.9 µM (inactive) with UO-31; 11.8 µM (inactive) in the assay on SK-MEL-2; 13.9 µM (inactive) with KM12; 14.6 µM (inactive) with NCI/ADR-RES; 1.73 µM (inactive) with NCI-H522; 11.1 µM (inactive) in the assay with SK-MEL-5. Further, in the assay on MOLT-4, the GI50 is 3.03 µM (inactive).

Turning to `COc1ccc2c(c1)OCCCN(C)OC2c1ccccc1` (configuration not stated), the GI50 in the assay with TK-10, in the assay with OVCAR-3, in the assay on HT-29, with IGROV-1, with SW-620 and in the assay on UACC-62 was > 100 µM (inactive) each time. In addition, the GI50 in the assay with HCT-15 was more than 100 µM; in the assay on UO-31, > 100 µM (inactive); with SK-MEL-2 it was > 100 µM (inactive); in the assay with KM12, > 100 µM (inactive); in the assay with DMS-273 it was > 100 µM (inactive); with SK-MEL-5, > 100 µM (inactive). Besides, the GI50 with MOLT-4 is > 100 µM (inactive).

With `CCOC(=O)c1ccc(-c2onc(C)c2Br)[nH]1`, the GI50 in the assay with HOP-92 is 23 µM (inactive); in the assay with MDA-N, 66.4 µM (inactive); in the assay with TK-10, 56.9 µM (inactive); with OVCAR-3, 30.4 µM (inactive); in the assay on HT-29 it was 39.5 µM (inactive); in the assay on IGROV-1, 22.7 µM (inactive). Moreover, the GI50 with SW-620 is 60 µM (inactive); in the assay on UACC-62, 56 µM (inactive); in the assay with HCT-15, 36.1 µM; with HOP-62, 59.3 µM (inactive); in the assay on MDA-MB-435 it was 85.1 µM (inactive); with DU-145, 55.3 µM (inactive). The GI50 in the assay on UO-31 is 32.7 µM (inactive); in the assay with SK-MEL-2 it was 76 µM (inactive); in the assay with KM12, 74 µM (inactive); in the assay on NCI/ADR-RES, 29.7 µM (inactive); with NCI-H522, 51.9 µM (inactive); in the assay with SK-MEL-5, 41.3 µM (inactive). In addition, in the assay with MOLT-4, the GI50 is > 100 µM (inactive).

With `COc1ccc(/C=C/C(=O)NCC(NC(=O)/C=C/c2ccc(OC)c(OC)c2)C(=O)O)cc1OC` (configuration not stated), the GI50 with HOP-92 was 0.0163 µM (active); in the assay with MDA-N, > 100 µM (inactive); with TK-10 it was > 100 µM (inactive); with OVCAR-3, > 100 µM (inactive); with HT-29, > 100 µM (inactive); in the assay with IGROV-1, < 0.01 µM (active). Also, the GI50 with SW-620 was > 100 µM (inactive); in the assay with UACC-62, > 100 µM (inactive); with HCT-15, less than 0.01 µM; with HOP-62, > 100 µM (inactive); with MDA-MB-435, > 100 µM (inactive); in the assay with DU-145, > 100 µM (inactive). Further, the GI50 with UO-31 was > 100 µM (inactive); in the assay with SK-MEL-2 it was > 100 µM (inactive); in the assay with KM12, > 100 µM (inactive); with NCI/ADR-RES, 0.0169 µM (active); with NCI-H522, > 100 µM (inactive); in the assay with SK-MEL-5 it was > 100 µM (inactive). Also, the GI50 in the assay on MOLT-4 is > 100 µM (inactive).

With `O=C1C2Cc3ccccc3CN2C(=O)N1CCN1CCOCC1` (configuration not stated), the GI50 in the assay on TK-10 was > 100 µM (inactive); in the assay with OVCAR-3 it was > 100 µM (inactive); with IGROV-1, > 100 µM (inactive); in the assay with SW-620, > 100 µM (inactive); in the assay on UACC-62, > 100 µM (inactive); in the assay on HCT-15, more than 100 µM. For the same molecule, the GI50 in the assay with HOP-62, in the assay on UO-31, with SK-MEL-2, with KM12, with NCI-H522 and with DMS-273 was > 100 µM (inactive) each time. Besides, the GI50 with SK-MEL-5 and in the assay on MOLT-4 was > 100 µM (inactive) each time.

Regarding `O=c1c(C(c2ccco2)c2c(O)oc3ccccc3c2=O)c(O)oc2ccccc12`, the GI50 in the assay on HOP-92 is 25.5 µM (inactive); with MDA-N, 22.6 µM (inactive); in the assay with TK-10, 26.7 µM (inactive); in the assay with OVCAR-3, 41.6 µM (inactive); in the assay on HT-29 it was 47.6 µM (inactive); in the assay on IGROV-1, 17.8 µM (inactive). Moreover, the GI50 is 21.4 µM (inactive) with SW-620; 25.9 µM (inactive) in the assay with UACC-62; 19.1 µM with HCT-15; > 100 µM (inactive) with HOP-62; 31.6 µM (inactive) in the assay on MDA-MB-435; > 100 µM (inactive) in the assay with DU-145. In addition, the GI50 was 25.7 µM (inactive) in the assay on UO-31; 51.6 µM (inactive) in the assay on SK-MEL-2; > 100 µM (inactive) in the assay with KM12; 30.5 µM (inactive) in the assay with NCI/ADR-RES; 19.5 µM (inactive) in the assay with NCI-H522; 40.3 µM (inactive) in the assay on SK-MEL-5. The GI50 in the assay with MOLT-4 is 25.6 µM (inactive).

On to `NC(=S)N/N=C/c1ncccc1N` [TRIAPINE], for which the GI50 with HOP-92 was 0.553 µM (active); in the assay on MDA-N, 2.65 µM (inactive); in the assay with TK-10, > 10 µM (inactive); in the assay with OVCAR-3, 2.25 µM (inactive); in the assay with HT-29 it was 1.93 µM (inactive); with IGROV-1, > 10 µM (inactive). For the same molecule, the GI50 with SW-620 was 3.72 µM (inactive); in the assay on UACC-62, 0.546 µM (active); with HCT-15, 1.97 µM; with HOP-62 it was 1.19 µM (inactive); with MDA-MB-435, 1.71 µM (inactive); in the assay with DU-145, 0.681 µM (active). Besides, the GI50 was 0.37 µM (active) in the assay with UO-31; > 10 µM (inactive) in the assay on SK-MEL-2; 4.59 µM (inactive) in the assay with KM12; 2.04 µM (inactive) with NCI/ADR-RES; 2.03 µM (inactive) in the assay on NCI-H522; 0.968 µM (active) in the assay with SK-MEL-5. Also, in the assay on MOLT-4, the GI50 was 0.438 µM (active).
